In ChEMBL document CHEMBL5518230, “Identification of a Novel Selective CDK9 Inhibitor for the Treatment of CRC: Design, Synthesis, and Biological Activity Evaluation” (J Med Chem, 2024):
The source made the active and inactive calls. The rule behind the calls is not given here.

Assays:
[1] = Toxicity in BALB/c mouse xenografted with human HCT-116 cells assessed as spleen morphological change at 25 mg/kg,po administrated once daily for 3 weeks by hematoxylin and eosin staining based microscopic analysis; type: organism-based; conditions: in vivo, 504 h
[2] = Toxicity in BALB/c mouse xenografted with human HCT-116 cells assessed as lung morphological change at 50 mg/kg,po administrated once daily for 3 weeks by hematoxylin and eosin staining based microscopic analysis; type: organism-based; conditions: in vivo, 504 h
[3] = test system: HCT-116; assay: Antitumor activity against human HCT-116 cells xenografted in BALB/c mouse assessed as downregulation of Mcl-1 expression at 25 mg/kg,po administrated once daily for 3 weeks by Western blotting analysis; type: functional, organism-based
[4] = Clearance in Sprague-Dawley rat at 2 mg/kg,iv administration measured for 0.25 to 24 hrs by LC-MS/MS analysis; type: ADME, organism-based; conditions: in vivo, time 0.25-24 hrs
[5] = target: Rho-associated protein kinase 1 (Homo sapiens) (UniProt Q13464); assay: Inhibition of human ROCK1 at 100 nM by kinase profiling assay relative to control
Chain of Rho-associated protein kinase 1 (Homo sapiens) (Q13464 2-1354 limits assumed): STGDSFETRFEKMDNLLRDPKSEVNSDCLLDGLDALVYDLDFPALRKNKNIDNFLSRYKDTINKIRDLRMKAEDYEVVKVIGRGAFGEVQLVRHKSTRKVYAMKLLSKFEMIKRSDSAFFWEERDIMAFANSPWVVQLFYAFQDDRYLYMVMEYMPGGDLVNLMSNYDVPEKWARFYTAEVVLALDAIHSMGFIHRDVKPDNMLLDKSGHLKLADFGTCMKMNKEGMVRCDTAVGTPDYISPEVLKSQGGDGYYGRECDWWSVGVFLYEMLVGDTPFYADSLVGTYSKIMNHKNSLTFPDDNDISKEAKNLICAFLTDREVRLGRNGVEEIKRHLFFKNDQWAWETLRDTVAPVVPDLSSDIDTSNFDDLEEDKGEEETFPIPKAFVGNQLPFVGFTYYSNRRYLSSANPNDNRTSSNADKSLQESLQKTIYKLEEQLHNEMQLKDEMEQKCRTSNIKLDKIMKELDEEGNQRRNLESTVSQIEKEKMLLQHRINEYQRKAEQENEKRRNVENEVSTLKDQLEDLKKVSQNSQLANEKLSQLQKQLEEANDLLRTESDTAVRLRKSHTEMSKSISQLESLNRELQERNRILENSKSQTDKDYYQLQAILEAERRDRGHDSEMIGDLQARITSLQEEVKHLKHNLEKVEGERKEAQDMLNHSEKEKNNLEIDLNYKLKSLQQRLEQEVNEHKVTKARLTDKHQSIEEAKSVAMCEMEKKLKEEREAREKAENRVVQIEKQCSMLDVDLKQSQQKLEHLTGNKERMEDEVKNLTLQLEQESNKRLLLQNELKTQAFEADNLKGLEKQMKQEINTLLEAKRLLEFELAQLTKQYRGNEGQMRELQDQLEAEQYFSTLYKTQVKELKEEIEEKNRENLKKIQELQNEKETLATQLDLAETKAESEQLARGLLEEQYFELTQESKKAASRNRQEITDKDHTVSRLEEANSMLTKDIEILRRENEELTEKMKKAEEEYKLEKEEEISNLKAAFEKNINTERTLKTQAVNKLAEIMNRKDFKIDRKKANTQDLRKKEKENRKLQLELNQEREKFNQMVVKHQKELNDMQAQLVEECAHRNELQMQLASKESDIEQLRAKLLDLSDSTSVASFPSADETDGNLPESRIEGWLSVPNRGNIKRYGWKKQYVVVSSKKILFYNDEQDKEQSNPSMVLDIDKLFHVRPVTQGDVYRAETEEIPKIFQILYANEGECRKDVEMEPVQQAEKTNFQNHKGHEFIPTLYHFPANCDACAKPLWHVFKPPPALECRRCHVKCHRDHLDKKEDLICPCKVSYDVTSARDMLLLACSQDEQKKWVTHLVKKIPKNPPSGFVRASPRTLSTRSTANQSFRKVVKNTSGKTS

[6] = target: Serine/threonine-protein kinase SIK2 (Homo sapiens) (UniProt Q9H0K1); assay: Inhibition of human QIK at 100 nM by kinase profiling assay relative to control
Chain of Serine/threonine-protein kinase SIK2 (Homo sapiens) (Q9H0K1 whole entry, looked up): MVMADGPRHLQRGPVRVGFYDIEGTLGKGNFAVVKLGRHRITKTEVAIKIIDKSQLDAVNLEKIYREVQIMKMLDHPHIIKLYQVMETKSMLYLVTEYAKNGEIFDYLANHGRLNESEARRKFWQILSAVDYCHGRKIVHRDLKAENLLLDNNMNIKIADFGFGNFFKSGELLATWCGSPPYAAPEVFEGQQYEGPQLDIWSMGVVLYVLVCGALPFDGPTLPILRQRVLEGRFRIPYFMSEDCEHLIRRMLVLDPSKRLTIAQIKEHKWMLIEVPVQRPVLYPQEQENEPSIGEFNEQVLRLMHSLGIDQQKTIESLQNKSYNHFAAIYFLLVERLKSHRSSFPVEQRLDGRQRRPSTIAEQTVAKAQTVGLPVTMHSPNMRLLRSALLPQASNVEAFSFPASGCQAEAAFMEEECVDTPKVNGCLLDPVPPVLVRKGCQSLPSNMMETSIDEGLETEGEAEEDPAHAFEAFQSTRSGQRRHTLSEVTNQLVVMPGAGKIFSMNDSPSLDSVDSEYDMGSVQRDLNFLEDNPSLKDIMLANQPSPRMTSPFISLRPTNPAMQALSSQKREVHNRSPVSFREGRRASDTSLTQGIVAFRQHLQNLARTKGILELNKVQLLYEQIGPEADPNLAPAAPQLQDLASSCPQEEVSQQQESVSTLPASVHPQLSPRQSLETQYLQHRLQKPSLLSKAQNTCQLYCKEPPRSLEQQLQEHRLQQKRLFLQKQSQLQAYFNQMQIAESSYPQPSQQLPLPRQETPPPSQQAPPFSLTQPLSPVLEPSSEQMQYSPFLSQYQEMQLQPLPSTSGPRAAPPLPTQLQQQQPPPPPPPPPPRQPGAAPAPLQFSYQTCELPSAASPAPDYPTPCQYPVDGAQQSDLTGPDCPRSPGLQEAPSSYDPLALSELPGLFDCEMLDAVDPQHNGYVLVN

[7] = target: CYP2C19 (Homo sapiens, UniProt P33261); assay: Inhibition of CYP2C19 in human liver microsomes using benzylnirvanol as […] at 10 uM preincubated for 10 mins followed by NADPH addition measured after 15 mins by LC-MS/MS analysis relative to control; type: ADME, Microsome; conditions: probe benzylnirvanol, time 25 min
Chain of CYP2C19 (P33261 whole entry): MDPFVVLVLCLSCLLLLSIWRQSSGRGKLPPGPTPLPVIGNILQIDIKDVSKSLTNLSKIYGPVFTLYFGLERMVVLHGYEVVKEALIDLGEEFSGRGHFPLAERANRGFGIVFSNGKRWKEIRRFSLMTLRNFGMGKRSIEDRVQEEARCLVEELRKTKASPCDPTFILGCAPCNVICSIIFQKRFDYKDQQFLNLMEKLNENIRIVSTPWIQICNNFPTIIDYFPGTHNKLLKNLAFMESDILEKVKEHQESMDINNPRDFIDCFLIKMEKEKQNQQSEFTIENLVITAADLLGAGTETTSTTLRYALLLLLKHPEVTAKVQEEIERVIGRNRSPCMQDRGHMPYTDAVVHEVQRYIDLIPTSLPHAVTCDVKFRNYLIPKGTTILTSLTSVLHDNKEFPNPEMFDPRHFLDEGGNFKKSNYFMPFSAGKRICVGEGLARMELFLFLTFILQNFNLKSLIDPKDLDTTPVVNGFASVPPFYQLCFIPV

[8] = test system: HCT-116; assay: Antitumor activity against human HCT-116 cells xenografted in BALB/c mouse assessed as downregulation of PARP expression at 25 mg/kg,po administrated once daily for 3 weeks by Western blotting analysis; type: functional, organism-based
[9] = target: Glycogen synthase kinase-3 beta (Homo sapiens) (UniProt P49841); assay: Inhibition of human GSK3beta at 100 nM by kinase profiling assay relative to control
Chain of Glycogen synthase kinase-3 beta (Homo sapiens) (P49841 whole entry, looked up): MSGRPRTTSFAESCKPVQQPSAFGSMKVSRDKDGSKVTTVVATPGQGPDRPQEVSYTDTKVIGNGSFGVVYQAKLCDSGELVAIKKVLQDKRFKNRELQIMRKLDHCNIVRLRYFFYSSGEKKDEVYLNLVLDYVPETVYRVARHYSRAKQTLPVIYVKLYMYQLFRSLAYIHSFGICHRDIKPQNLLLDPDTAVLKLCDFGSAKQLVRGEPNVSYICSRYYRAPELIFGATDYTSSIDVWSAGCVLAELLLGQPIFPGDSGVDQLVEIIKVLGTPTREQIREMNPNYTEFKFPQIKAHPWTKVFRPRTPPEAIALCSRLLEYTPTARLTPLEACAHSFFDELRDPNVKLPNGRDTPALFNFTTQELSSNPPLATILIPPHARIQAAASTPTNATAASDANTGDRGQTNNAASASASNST

[10] = Bioavailability in Sprague-Dawley rat at 2 mg/kg,iv administration measured for 0.25 to 24 hrs by LC-MS/MS analysis; type: ADME, organism-based; conditions: in vivo, time 0.25-24 hrs
[11] = target: Cyclin-dependent kinase 8 (Homo sapiens, UniProt P49336); assay: Inhibition of CDK8 (unknown origin)
Chain of Cyclin-dependent kinase 8 (P49336 whole entry): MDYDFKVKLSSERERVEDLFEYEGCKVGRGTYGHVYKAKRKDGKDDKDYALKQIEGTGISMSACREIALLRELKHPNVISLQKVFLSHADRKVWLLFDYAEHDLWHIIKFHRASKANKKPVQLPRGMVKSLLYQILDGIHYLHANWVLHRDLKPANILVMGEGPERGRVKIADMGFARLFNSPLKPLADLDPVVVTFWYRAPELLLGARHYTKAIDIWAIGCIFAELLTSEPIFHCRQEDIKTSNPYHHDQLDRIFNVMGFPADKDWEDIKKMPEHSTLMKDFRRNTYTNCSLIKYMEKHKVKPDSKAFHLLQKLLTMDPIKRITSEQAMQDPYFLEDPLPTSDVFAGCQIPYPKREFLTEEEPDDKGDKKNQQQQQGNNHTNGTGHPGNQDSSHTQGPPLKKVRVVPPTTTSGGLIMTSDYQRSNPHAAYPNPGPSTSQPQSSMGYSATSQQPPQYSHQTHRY

[12] = target: Cyclin-dependent kinase 2 (Homo sapiens, UniProt P24941); assay: Inhibition of CDK2 (unknown origin)
[13] = test system: HCT-116; assay: Induction of apoptosis in human HCT-116 cells assessed as downregulation of PARP expression at 25 to 400 nM incubated for 48 hrs by Western blotting analysis; type: functional, cell-based; conditions: dose 25-400 nM
[14] = AUC (0 to t) in Sprague-Dawley rat at 2 mg/kg,iv administration measured for 0.25 to 24 hrs by LC-MS/MS analysis; type: ADME, organism-based; conditions: in vivo, time 0.25-24 hrs
[15] = Toxicity in BALB/c mouse xenografted with human HCT-116 cells assessed as heart morphological change at 25 mg/kg,po administrated once daily for 3 weeks by hematoxylin and eosin staining based microscopic analysis; type: organism-based; conditions: in vivo, 504 h
[16] = target: Serine/threonine-protein kinase PLK2 (Homo sapiens) (UniProt Q9NYY3); assay: Inhibition of human PLK2 at 100 nM by kinase profiling assay relative to control
Chain of Serine/threonine-protein kinase PLK2 (Homo sapiens) (Q9NYY3 whole entry, looked up): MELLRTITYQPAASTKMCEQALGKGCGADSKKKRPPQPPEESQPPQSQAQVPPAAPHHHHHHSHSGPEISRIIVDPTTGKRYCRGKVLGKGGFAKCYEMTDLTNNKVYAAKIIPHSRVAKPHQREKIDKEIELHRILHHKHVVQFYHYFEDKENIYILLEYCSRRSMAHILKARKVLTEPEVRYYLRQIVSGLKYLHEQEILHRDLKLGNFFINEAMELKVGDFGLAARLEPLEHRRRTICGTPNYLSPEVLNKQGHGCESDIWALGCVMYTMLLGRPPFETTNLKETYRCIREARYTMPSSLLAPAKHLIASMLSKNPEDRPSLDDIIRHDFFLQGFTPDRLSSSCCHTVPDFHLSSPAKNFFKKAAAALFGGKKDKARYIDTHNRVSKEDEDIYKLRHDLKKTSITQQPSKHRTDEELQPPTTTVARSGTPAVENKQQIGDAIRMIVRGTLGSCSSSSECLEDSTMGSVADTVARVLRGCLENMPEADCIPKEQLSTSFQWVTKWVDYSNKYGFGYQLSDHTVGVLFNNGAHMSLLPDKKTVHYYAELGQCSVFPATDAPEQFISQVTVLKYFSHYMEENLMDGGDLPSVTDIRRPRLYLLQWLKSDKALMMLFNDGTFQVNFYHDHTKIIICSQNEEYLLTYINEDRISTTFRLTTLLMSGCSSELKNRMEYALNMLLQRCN

[17] = test system: HCT-116; assay: Induction of apoptosis in human HCT-116 cells assessed as effect on RNA polymerase II expression at 25 to 400 nM incubated for 48 hrs by Western blotting analysis; type: functional, cell-based; conditions: dose 25-400 nM
[18] = Cmax in Sprague-Dawley rat at 10 mg/kg,po administration measured for 0.25 to 24 hrs by LC-MS/MS analysis; type: ADME, organism-based; conditions: in vivo, time 0.25-24 hrs
[19] = Growth inhibition of human CCC-HIE-2 cells incubated for 48 hrs by CCK-8 assay; type: toxicity, cell-based
[20] = Toxicity in BALB/c mouse xenografted with human HCT-116 cells assessed as lung morphological change at 25 mg/kg,po administrated once daily for 3 weeks by hematoxylin and eosin staining based microscopic analysis; type: organism-based; conditions: in vivo, 504 h
[21] = test system: HCT-116; assay: Induction of apoptosis in human HCT-116 cells assessed as increase in caspase-3 activity incubated for 48 hrs by GreenNuc substrate based flow cytometric analysis; type: functional, cell-based
[22] = test system: HCT-116; assay: Induction of apoptosis in human HCT-116 cells assessed as downregulation of XIAP mRNA expression at 25 to 400 nM incubated for 48 hrs by qRT-PCR analysis; type: functional, cell-based; conditions: dose 25-400 nM
[23] = MRT (0 to t) in Sprague-Dawley rat at 10 mg/kg,po administration measured for 0.25 to 24 hrs by LC-MS/MS analysis; type: ADME, organism-based; conditions: in vivo, time 0.25-24 hrs

CC(C)n1nnc2ccc(-c3ccnc(Nc4cc(C(=O)N5CCCN(C)CC5)ccn4)c3)cc21
Activity [1]: Non-Toxic
Activity [2]: Non-Toxic
Activity [3]: Active
clearance [4]: 89.8 mL/min/kg
inhibition [5]: < 50%
inhibition [6]: < 50%
inhibition at 0.25 h, 10 µM [7]: 24.5%
Activity [8]: Active
inhibition [9]: < 50%
bioavailability [10]: 12.3%
IC50 [11]: > 0.5 µM
IC50 [12]: > 0.5 µM
Activity [13]: Active
AUC(0-t) [14]: 361 ng·h/mL
Activity [15]: Non-Toxic
inhibition [16]: < 50%
Activity [17]: inactive
Cmax [18]: 39 ng/mL
GI50 at 48 h [19]: 9.51 µM
Activity [20]: Non-Toxic
Activity [21]: Dose-Dependent Effect
Activity [22]: Active
MRT last [23]: 4.62 h
